# Source: the supplement of paper PMC10307832
# Assays:
# Experiment in all cases: relative viability (nuclei count vs DMSO), 5 days (fraction); higher = more cells survive
# [1] = compound: CCC1=CN=CN=C1N2CCN(CC2)CC3=NC4=C(N3)C=C(C=C4)C(F)(F)F + CS(=O)(=O)N1CCN(Cc2cc3nc(-c4cccc5[nH]ncc45)nc(N4CCOCC4)c3s2)CC1 [Pictilisib] (partner 1 µM)
# How it was run: (§1)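 Lung cancer cell lines in 1536-well plates got either a single drug or a fixed anchor-drug dose together with five library-drug doses (not always all listed) in √10 steps, by pin tool, on the day after seeding. Nuclei were counted after 5 days, and relative viability is the treated-to-vehicle ratio of nuclei counts. Values are medians of duplicate plates.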
# [2] = compound: CCn1c(-c2nonc2N)nc2cnc(Oc3cccc(NC(=O)c4ccc(OCCN5CCOCC5)cc4)c3)cc21 + N=C(N)NC(=N)NCCc1ccccc1 [Phenformin] (partner 250 µM)
# How it was run: as §1
# [3] = compound: CCn1c(-c2nonc2N)nc2cnc(Oc3cccc(NC(=O)c4ccc(OCCN5CCOCC5)cc4)c3)cc21 + O=C(c1cc(Cc2n[nH]c(=O)c3ccccc23)ccc1F)N1CCN(C(=O)C2CC2)CC1 [Olaparib] (partner 8 µM)
# How it was run: as §1
# Mirin + Crizotinib = compound: N=C1NC(=O)/C(=C/c2ccc(O)cc2)S1 [Mirin] + C[C@@H](Oc1cc(-c2cnn(C3CCNCC3)c2)cnc1N)c1c(Cl)ccc(F)c1Cl [Crizotinib] (partner 1 µM)
# How it was run: as §1
Cell Line,relative viability ([1]; first compound 0.04 µM),relative viability ([1]; first compound 0.1265 µM),relative viability ([1]; first compound 0.4 µM),relative viability ([1]; first compound 1.265 µM),relative viability ([1]; first compound 4 µM),relative viability ([2]; first compound 0.04 µM),relative viability ([2]; first compound 0.1265 µM),relative viability ([2]; first compound 0.4 µM),relative viability ([2]; first compound 1.265 µM),relative viability ([2]; first compound 4 µM),relative viability ([3]; first compound 0.04 µM),relative viability ([3]; first compound 0.1265 µM),relative viability ([3]; first compound 0.4 µM),relative viability ([3]; first compound 1.265 µM),relative viability ([3]; first compound 4 µM),relative viability (Mirin + Crizotinib; first compound 0.25 µM),relative viability (Mirin + Crizotinib; first compound 0.7906 µM),relative viability (Mirin + Crizotinib; first compound 2.5 µM),relative viability (Mirin + Crizotinib; first compound 7.906 µM),relative viability (Mirin + Crizotinib; first compound 25 µM)
201T,0.708,0.652,0.658,0.514,0.801,0.471,0.44,0.342,0.368,0.396,0.859,0.933,0.817,0.812,0.769,0.936,1.09,0.995,1.16,1.22
A549,0.547,0.488,0.467,0.507,0.426,0.303,0.151,0.0713,0.0328,0.0406,0.499,0.343,0.122,0.0557,0.102,0.799,0.9,0.739,0.675,0.68
A-427,0.675,0.685,0.682,0.637,0.574,0.471,0.377,0.227,0.167,0.114,0.704,0.685,0.601,0.198,0.264,0.87,–,0.809,0.881,0.958
ABC-1,0.587,0.955,0.69,0.665,0.646,0.23,0.266,0.209,0.277,0.217,0.632,0.589,0.74,0.386,0.458,0.993,1.09,0.866,0.918,0.664
BEN,0.593,0.557,0.503,0.343,0.331,0.29,0.275,0.21,0.235,0.228,1.29,0.894,0.714,0.368,0.415,0.855,0.753,1.01,0.82,0.43
CAL-12T,–,0.541,0.295,0.314,0.361,0.686,0.596,0.48,0.418,0.388,0.825,0.795,0.73,0.635,0.539,0.667,0.509,0.619,0.573,0.639
COR-L23,0.696,0.71,0.676,0.632,0.769,0.451,0.285,0.185,0.155,0.13,0.346,0.301,0.269,0.145,0.124,0.69,0.828,0.75,0.556,0.617
COR-L 105,0.372,0.376,0.385,0.247,0.464,0.523,0.416,0.389,0.31,0.271,0.631,0.617,0.699,0.554,0.457,0.781,0.996,0.714,0.855,0.697
Calu-6,1.07,0.877,0.865,0.822,0.73,–,–,–,–,–,0.569,0.528,0.541,0.381,0.328,0.745,0.833,0.767,0.781,0.781
ChaGo-K-1,–,0.707,0.63,0.668,0.557,0.599,0.413,0.306,0.351,0.398,0.512,0.443,0.443,0.399,0.387,0.984,–,1.12,1.04,0.866
EBC-1,0.459,0.318,0.333,0.261,0.352,–,–,–,–,–,0.777,0.716,0.637,0.492,0.535,0.21,0.221,0.166,0.194,0.21
EKVX,0.395,0.388,0.373,0.307,0.444,0.275,0.242,0.136,0.227,0.236,1.18,0.856,0.802,0.635,0.79,0.839,0.811,1.1,0.947,1.1
EMC-BAC-2,0.571,0.491,0.479,0.349,0.608,0.502,0.387,0.259,0.176,0.178,0.474,0.42,0.38,0.27,0.292,0.727,0.818,0.774,0.697,0.616
EPLC-272H,0.305,0.285,0.287,0.302,0.284,0.369,0.306,0.216,0.245,0.229,1.09,0.928,0.827,0.449,0.365,0.83,–,0.853,0.671,0.779
H3255,0.5,0.507,0.446,0.423,0.455,0.455,0.35,0.332,0.322,0.358,0.532,0.542,0.501,0.364,0.383,0.882,0.939,0.838,0.735,0.836
HARA,0.311,0.326,0.321,0.302,0.471,0.585,0.369,0.231,0.0981,0.074,0.607,0.965,0.654,0.294,0.139,1.06,1.15,1.05,0.995,1.14
HCC-15,0.667,0.676,0.677,0.532,0.805,0.532,0.362,0.269,–,0.364,0.745,0.737,0.766,0.581,0.542,0.841,0.866,0.888,0.803,0.802
HCC-44,0.584,0.593,0.557,0.477,0.596,0.249,0.216,0.113,0.096,0.074,1.07,0.996,0.945,0.999,0.802,0.817,0.85,0.783,0.795,1.07
HCC-78,0.143,0.299,0.203,0.206,0.178,0.789,0.934,–,0.766,0.881,0.789,0.97,–,0.832,0.946,0.362,0.381,0.371,0.386,0.41

Cell Line,relative viability ([1]; first compound 0.04 µM),relative viability ([1]; first compound 0.1265 µM),relative viability ([1]; first compound 0.4 µM),relative viability ([1]; first compound 1.265 µM),relative viability ([1]; first compound 4 µM),relative viability ([2]; first compound 0.04 µM),relative viability ([2]; first compound 0.1265 µM),relative viability ([2]; first compound 0.4 µM),relative viability ([2]; first compound 1.265 µM),relative viability ([2]; first compound 4 µM),relative viability ([3]; first compound 0.04 µM),relative viability ([3]; first compound 0.1265 µM),relative viability ([3]; first compound 0.4 µM),relative viability ([3]; first compound 1.265 µM),relative viability ([3]; first compound 4 µM),relative viability (Mirin + Crizotinib; first compound 0.25 µM),relative viability (Mirin + Crizotinib; first compound 0.7906 µM),relative viability (Mirin + Crizotinib; first compound 2.5 µM),relative viability (Mirin + Crizotinib; first compound 7.906 µM),relative viability (Mirin + Crizotinib; first compound 25 µM)
HCC-366,0.242,0.124,0.133,–,0.134,0.694,0.665,0.412,0.0542,0.0311,0.334,0.303,0.416,0.0675,0.0475,0.464,0.62,0.44,0.443,0.413
HCC-827,0.978,1.04,1.03,0.957,0.994,0.489,0.484,0.439,0.414,0.399,0.686,0.693,0.698,0.501,0.509,0.98,0.961,0.973,0.885,1.07
HOP-62,0.661,0.669,0.705,0.642,0.76,0.739,0.686,0.55,0.357,0.368,0.679,0.379,0.372,–,0.351,1.05,0.815,0.828,–,0.937
IA-LM,0.409,0.33,0.323,0.325,0.3,–,–,–,–,–,0.967,0.834,0.791,0.796,0.765,0.813,0.916,0.744,0.849,0.981
LC-2-ad,0.459,0.512,0.424,0.328,0.326,0.679,0.563,0.397,0.362,0.524,0.753,0.677,0.716,0.438,0.334,0.493,0.518,0.466,–,0.254
LCLC-97TM1,0.181,0.198,0.181,0.204,0.214,0.485,0.431,0.23,0.463,0.361,0.518,0.381,–,0.387,0.423,0.316,0.317,0.259,0.218,0.233
LCLC-103H,0.599,0.614,0.499,0.435,0.559,0.421,0.286,0.182,0.216,0.222,0.908,0.816,0.712,0.717,0.715,1.1,0.978,1.01,1.17,1.25
LK-2,0.575,0.462,0.436,0.42,0.56,0.864,0.618,0.167,0.189,0.244,1.13,0.745,0.367,0.326,0.555,0.241,–,0.238,0.24,0.199
LOU-NH91,0.501,0.533,0.54,0.47,0.551,0.797,0.605,0.465,0.389,0.404,0.919,0.756,0.665,0.494,0.534,0.759,–,0.718,0.77,0.902
NCI-H522,–,–,–,–,–,0.561,0.613,0.6,0.522,0.507,0.661,0.614,0.665,0.514,0.554,–,–,–,–,–
NCI-H1299,0.819,0.728,0.972,0.752,0.673,–,–,–,–,–,0.975,0.958,0.867,0.712,0.52,0.991,1.05,0.947,0.997,1.08
NCI-H1395,0.59,0.553,0.619,0.572,0.646,0.517,0.45,0.453,0.305,0.365,0.384,0.41,0.401,0.374,0.352,–,–,–,–,–
NCI-H1563,0.643,0.684,0.65,0.616,0.698,0.592,0.61,0.507,0.582,0.553,–,–,–,–,–,0.914,0.836,0.837,0.96,0.888
NCI-H1623,–,–,–,–,–,0.629,0.594,0.499,0.536,0.605,–,–,–,–,–,–,–,–,–,–
NCI-H1648,–,–,–,–,–,–,–,–,–,–,0.604,0.577,1.35,1.26,1.5,–,–,–,–,–
NCI-H1703,0.238,0.277,0.263,0.232,0.227,–,–,–,–,–,0.469,0.452,0.675,0.333,0.303,0.603,0.519,0.757,0.523,0.493
NCI-H1793,0.329,0.304,0.428,–,0.328,0.459,0.464,0.253,0.212,0.168,0.824,0.994,0.756,0.52,0.363,–,–,–,–,–
NCI-H2342,–,–,–,–,–,0.71,0.585,0.581,0.449,0.66,0.439,0.508,0.469,0.368,0.361,–,–,–,–,–
SW 900,–,–,–,–,–,0.71,0.548,0.506,0.39,0.548,0.899,0.924,1.13,0.826,0.694,–,–,–,–,–
